The values that follow come from paper PMC2614658 (Antiviral Research, 2008).

pIC50: −log10 of the molar value. Where two headings read alike, the source gives them in different places.

Data set [1] has as its system influenza A/WSN/33 virus.
Data set [2] deals with influenza A/WSN/33 virus. The conditions noted are these: ∼6 μM PMA.
Another data set concerns A549 cells. The note with it: 24 h treatment, MTS assay. A general note: Formazan colour is commonly taken as a measure of viable cells.
In data set [3] the test system is influenza B/Yamagata/88 virus. It is filed as cell-based.
The test system of data set [4] is vesicular stomatitis virus (VSV-GFP). It is filed as cell-based.
Data set [5] has as its system Newcastle disease virus (NDV/B1). It is filed as cell-based.
Data set [6] concerns influenza A/WSN/33 virus. It is filed as cell-based.
Data set [7] concerns influenza A/WSN/33 virus. As to the kind of experiment: in vitro. The conditions noted are these: human.
The subject of data set [8] is influenza A/WSN/33 virus. As to the kind of experiment: microbe, parasite or virus in culture. The conditions noted are these: A549, 24 h.
The next data set is described as follows: in vitro. The note with it: human.
[9] abbreviates: read-out: IC50 (compound concentration of 50% inhibition of viral replication).

As to `CCCCCCCCCCCCCC(=O)O[C@@H]1[C@@H](C)[C@@]2(O)[C@@H](C=C(CO)C[C@]3(O)C(=O)C(C)=C[C@@H]23)[C@@H]2C(C)(C)[C@]12OC(C)=O` [PMA, phorbol 12-myristate 13-acetate], the “increase in viral titer compared to untreated control” value with influenza A/WSN/33 virus [1] is 12 fold. For the same compound, the “toxicity at the concentration used in the screen” value with influenza A/WSN/33 virus [2] is on record as “toxic”.

As for `N#Cc1cc2c(OCC(O)CN3CCN(C(c4ccccc4)c4ccccc4)CC3)cccc2[nH]1` (stereo not shown) [SDZ-201106], in the data set with influenza A/WSN/33 virus [1], the “SI (CC50/IC50), selective index” value worked out at 7 and the “reduction in viral titers compared to untreated control” value (“reduction in viral titers” for short) is given as 85%. For the same compound, the pIC50 in the data set on influenza A/WSN/33 virus [1] (setting [9]) is 5.39. In the data set with A549 cells, the “concentrations found to be non-toxic / not decreasing cell viability” value was “up to 12.5 μM”. The “reduction in viral titers” value in data set [3] stood at 72%.

Turning to `CC(=O)O[C@H]1C[C@H](O[C@H]2[C@@H](O)C[C@H](O[C@H]3[C@@H](O)C[C@H](O[C@H]4CC[C@@]5(C)[C@H](CC[C@@H]6[C@@H]5C[C@@H](O)[C@]5(C)[C@@H](C7=CC(=O)OC7)CC[C@]65O)C4)O[C@@H]3C)O[C@@H]2C)O[C@H](C)[C@H]1O[C@@H]1O[C@H](CO)[C@@H](O)[C@H](O)[C@H]1O` [lanatoside C], the “effect on viral replication” value in data set [4] and in data set [5] was “significantly inhibit” throughout. Further, in the data set with influenza A/WSN/33 virus [1] ([…], 20 nM ouabain or 78 nM lanatoside C), the “decrease in viral titers compared to untreated control” value stood at 95.9%.

`C=C(C)[C@@]12O[C@@]3(c4ccccc4)O[C@@H]1[C@@H]1[C@@H]4O[C@]4(CO)[C@@H](O)[C@]4(O)C(=O)C(C)=C[C@H]4[C@@]1(O3)[C@H](C)[C@H]2OC(=O)/C=C/C=C/c1ccccc1` [mezerein]: in the data set on influenza A/WSN/33 virus [6], the “increase in viral titers” value was determined as 15 fold. The “increase in viral titer compared to untreated cells” value in data set [3] is listed as “eightfold”.

Regarding `C[C@@H]1O[C@@H](O[C@H]2C[C@@H](O)[C@]3(CO)[C@H]4[C@H](O)C[C@]5(C)[C@@H](C6=CC(=O)OC6)CC[C@]5(O)[C@@H]4CC[C@]3(O)C2)[C@H](O)[C@H](O)[C@H]1O` [ouabain], the “effect on viral replication” value in data set [4] and in data set [5] was “significantly inhibit” in each case. For the same compound, the “decrease in viral titers compared to untreated control” value in the data set on influenza A/WSN/33 virus [1] worked out at 99.1%.

Turning to `CC(=O)c1c(O)c(C)c(O)c(Cc2c(O)c3c(c(C(=O)/C=C/c4ccccc4)c2O)OC(C)(C)C=C3)c1O` [rottlerin], in the data set on influenza A/WSN/33 virus [7], the selectivity ratio was 39. Also, the results for the “reduction in viral titers” value (with influenza A/WSN/33 virus [1]; in data set [3]) were 93% and 80%, respectively. Besides, in the data set on A549 cells, the “concentrations found to be non-toxic / not decreasing cell viability” value is reported as “up to 1.28 μM”. The pIC50 with influenza A/WSN/33 virus [8] (setting [9]) is 6.34; in the data set on influenza A/WSN/33 virus [8] (read-out: IC50 (half maximal inhibitory concentration)) it was 6.33. This compound also came in with a CC50 in the data set “in vitro” of 18.2 µM.
